From ChEMBL document CHEMBL1201862, “PubChem BioAssay data set” (2004)
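Results reflect a 48-hour exposure of cells in 96-well plates to compound at five concentrations. Here, GI50 denotes the concentration required for 50% inhibition of growth.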 The source made the active and inactive calls. Cut-off read from the data, not from the text of the source: active = GI50 up to about 1.1 µM and inactive = higher.

Assays:
Experiment in all cases: DTP human tumour cell line panel, 48 h
DLD-1 = tested on: DLD-1
DMS-273 = tested on: DMS-273
HOP-18 = tested on: HOP-18
KM-20L2 = tested on: KM-20L2
LXFL 529 = tested on: LXFL 529
M19-MEL = tested on: M19-MEL
RXF 631 = tested on: RXF 631
XF498 = tested on: XF498
DMS-114 = tested on: DMS-114

SMILES	GI50 (DLD-1)	GI50 (DMS-273)	GI50 (HOP-18)	GI50 (KM-20L2)	GI50 (LXFL 529)	GI50 (M19-MEL)	GI50 (RXF 631)	GI50 (XF498)	GI50 (DMS-114)
CC1CC(C2=CC=CCS2)=Nc2ccccc2S1 (stereo not given)	70 µM (inactive)	> 100 µM (inactive)	> 100 µM (inactive)	> 100 µM (inactive)	> 100 µM (inactive)	> 100 µM (inactive)	> 100 µM (inactive)	> 100 µM (inactive)	
CC(C)N(C(=O)C12C3C4C5C3C1(C(=O)N(C(C)C)C(C)C)C5C42)C(C)C (stereo not given)	> 45.3 µM (inactive)	> 41.7 µM (inactive)	> 100 µM (inactive)	> 100 µM (inactive)	> 80.4 µM (inactive)	> 100 µM (inactive)		> 100 µM (inactive)	> 44.5 µM (inactive)
Cc1cccc(C)c1NC(=O)/C(=N/NC(N)=S)C(C)C(=O)c1ccc(Cl)cc1 (stereo not given)	> 100 µM (inactive)	> 100 µM (inactive)	> 100 µM (inactive)	> 100 µM (inactive)	> 100 µM (inactive)	> 100 µM (inactive)	> 100 µM (inactive)	> 100 µM (inactive)	> 100 µM (inactive)
NC1=NN(c2ccccc2)C(=O)C1/C(=N\NC(=O)c1cc2ccccc2cc1O)C(=O)Nc1nc([N+](=O)[O-])cs1 (stereo not given)	31.5 µM (inactive)	> 45.2 µM (inactive)	40 µM (inactive)	40.9 µM (inactive)	34.8 µM (inactive)	27.8 µM (inactive)	22.7 µM (inactive)	36.6 µM (inactive)	18.4 µM (inactive)
COC1=CC(=O)[C@H]2[C@H](C)C(c3ccccc3)[C@@]2(C)C1=O (stereo not given in full)	> 100 µM (inactive)	> 100 µM (inactive)			> 100 µM (inactive)	> 100 µM (inactive)		> 100 µM (inactive)	
O=C1/C(=C/c2cc(O)c(O)c(O)c2)Oc2cc(O)cc(OC3OC(CO)C(O)C(O)C3O)c21 (stereo not given)	18.7 µM (inactive)	1.85 µM (inactive)	53.5 µM (inactive)	21.2 µM (inactive)	14.6 µM (inactive)	18 µM (inactive)	1.81 µM (inactive)		25.2 µM (inactive)
COC(=O)/C(=C/c1ccc(OC)cc1)C(C(=O)O)=C1CCCC1	> 100 µM (inactive)	> 100 µM (inactive)		> 100 µM (inactive)	> 100 µM (inactive)	> 100 µM (inactive)	> 100 µM (inactive)	11.7 µM (inactive)	
CC(C)=CCOc1ccc(-c2coc3cc4c(c(O)c3c2=O)C=CC(C)(C)O4)cc1	50.7 µM (inactive)			> 100 µM (inactive)	20.9 µM (inactive)	47.9 µM (inactive)		15.9 µM (inactive)	18.2 µM (inactive)
CCOc1ccccc1NC(=O)C(=O)Cc1nc2ccccc2s1	> 100 µM (inactive)	> 100 µM (inactive)	> 100 µM (inactive)	> 100 µM (inactive)	> 100 µM (inactive)	> 100 µM (inactive)	> 100 µM (inactive)	> 100 µM (inactive)	> 100 µM (inactive)
O=[PH](O)c1cc2c3ccccc3ccc2c2ccccc12	> 100 µM (inactive)	> 100 µM (inactive)	> 100 µM (inactive)	> 100 µM (inactive)	> 100 µM (inactive)	> 100 µM (inactive)		67.3 µM (inactive)	> 100 µM (inactive)
CCOC(=O)c1oc2ccc(OC)c3c2c1CCC3	64.9 µM (inactive)	> 100 µM (inactive)			65.6 µM (inactive)	> 100 µM (inactive)		> 100 µM (inactive)	> 100 µM (inactive)
CC(=O)/C=C1\CC(=O)Nc2ccccc2N1	> 100 µM (inactive)			> 100 µM (inactive)	> 100 µM (inactive)				> 100 µM (inactive)
C/N=C(\N=c1/ss/c(=N\C)n1C)N(C)C.[O-][Cl+3]([O-])([O-])O	94.6 µM (inactive)	37.8 µM (inactive)	23.9 µM (inactive)	> 100 µM (inactive)	> 100 µM (inactive)	> 100 µM (inactive)	> 100 µM (inactive)	> 100 µM (inactive)	> 100 µM (inactive)
O=C1C(Cl)C(c2ccccc2)N1n1cnc2ccccc2c1=O (stereo not given)	> 100 µM (inactive)	> 100 µM (inactive)	26.5 µM (inactive)	> 100 µM (inactive)	> 100 µM (inactive)	> 100 µM (inactive)		> 100 µM (inactive)	> 100 µM (inactive)
CC1=C(C(=O)CC(=O)C(=O)Nc2ccc(C)c(C)c2)Sc2ccccc2N1	> 100 µM (inactive)	> 100 µM (inactive)	> 100 µM (inactive)	> 100 µM (inactive)	> 100 µM (inactive)	> 100 µM (inactive)		> 100 µM (inactive)	> 100 µM (inactive)
CCOC(=O)C1(C/C=C(/C)Cl)CCCC1=O (stereo not given)	71.3 µM (inactive)	23 µM (inactive)	> 100 µM (inactive)	47.6 µM (inactive)	> 100 µM (inactive)	> 100 µM (inactive)	95.1 µM (inactive)	> 100 µM (inactive)	71.6 µM (inactive)
COc1ccc2cc3[n+](cc2c1OC)CCc1cc(O)c(O)cc1-3	> 100 µM (inactive)	> 100 µM (inactive)		> 100 µM (inactive)	> 100 µM (inactive)	> 100 µM (inactive)	> 100 µM (inactive)	> 100 µM (inactive)	> 100 µM (inactive)
Cc1ccc2c(c1)CNc1ccc(C)cc1CN2	> 100 µM (inactive)	> 100 µM (inactive)	> 100 µM (inactive)		> 100 µM (inactive)	> 100 µM (inactive)		> 100 µM (inactive)	> 100 µM (inactive)
CC(=O)OC1CC2C(C)(C)C(=O)C=C[C@]2(C)C2CCC3(C)C(c4ccoc4)[C@@H](O)[C@H]4O[C@]43[C@]12C (stereo not given in full)	20.4 µM (inactive)	22.1 µM (inactive)	21.6 µM (inactive)	18.5 µM (inactive)	18.5 µM (inactive)	18.7 µM (inactive)			20.1 µM (inactive)
COC(=O)C(CCS(=O)(=O)CC(=O)C(=O)Nc1cccc(C(C)=O)c1)C(=O)OC	> 56.2 µM (inactive)	> 100 µM (inactive)	> 100 µM (inactive)	> 100 µM (inactive)	> 100 µM (inactive)	> 100 µM (inactive)	> 100 µM (inactive)	> 100 µM (inactive)	> 39.4 µM (inactive)
CC(/C=C/C=C\C=C\C=C(/C)C(=O)NC(C)CO)=C\C(C)C(O)/C(C)=C/C(C)CCc1ccccc1 (stereo not given)	13.7 µM (inactive)	1.87 µM (inactive)	10.8 µM (inactive)	11.1 µM (inactive)	3.18 µM (inactive)	5.15 µM (inactive)		7.71 µM (inactive)	< 0.01 µM (active)
O=C(CC1(O)C(=O)Nc2ccc(Br)cc21)c1ccc(Cl)cc1 (stereo not given)	70.8 µM (inactive)		72.4 µM (inactive)	> 100 µM (inactive)	> 100 µM (inactive)		31.5 µM (inactive)		
CCOc1ccc(NC(=O)CC#N)cc1	> 100 µM (inactive)	> 100 µM (inactive)	> 100 µM (inactive)	> 100 µM (inactive)	> 100 µM (inactive)	> 100 µM (inactive)	> 100 µM (inactive)	> 100 µM (inactive)	
C=CCc1cc(-c2cc(CC=C)c(O)c(CNCCCl)c2)cc(CNCCCl)c1O	21.5 µM (inactive)			17.5 µM (inactive)	15.1 µM (inactive)	17.1 µM (inactive)			21.1 µM (inactive)
COc1ccccc1NC(=O)CC(=O)n1nc(C)c(/N=N/c2ccccc2Cl)c1C	> 100 µM (inactive)	> 100 µM (inactive)	> 100 µM (inactive)	> 100 µM (inactive)	> 100 µM (inactive)	> 100 µM (inactive)	> 31.6 µM (inactive)	> 100 µM (inactive)	> 100 µM (inactive)
CN1C(=O)C(=CN)C(=O)N(C)C1=O	> 100 µM (inactive)		> 100 µM (inactive)	> 100 µM (inactive)		> 100 µM (inactive)		> 100 µM (inactive)	> 100 µM (inactive)
COC(=O)C1Cc2c([nH]c3ccccc23)C(C2CCCCC2)N1 (stereo not given)	> 100 µM (inactive)	> 100 µM (inactive)	> 100 µM (inactive)	> 100 µM (inactive)	> 100 µM (inactive)	> 100 µM (inactive)	> 100 µM (inactive)		> 100 µM (inactive)
N#C/C(=C\c1cccc(Cl)c1Cl)c1ccccc1	> 72.8 µM (inactive)	21 µM (inactive)	52.2 µM (inactive)	> 100 µM (inactive)	54 µM (inactive)	> 84.3 µM (inactive)	50 µM (inactive)	> 42.3 µM (inactive)	43.7 µM (inactive)
